Data reported in PubChem BioAssay (NCI).
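These data come from cells grown in 96-well plates and exposed to compound for 48 hours at five concentrations. Definition used: TGI = concentration required for complete inhibition of growth.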

How the values were obtained:
Test in all cases: NCI-60 cell line screen, 48 h
[1] = system: COLO 205 colon
[2] = system: EKVX NSCLC
[3] = system: HCT-15 colon
[4] = system: HOP-62 NSCLC
[5] = system: HT29 colon
[6] = system: K-562 leukemia
[7] = system: LOX IMVI melanoma
[8] = system: M14 melanoma
[9] = system: MALME-3M melanoma
[10] = system: MDA-MB-435
[11] = system: NCI-H522 lung
[12] = system: NCI/ADR-RES ovarian
[13] = system: SK-MEL-2 melanoma
[14] = system: SNB-19 CNS
[15] = system: SNB-75 CNS
[16] = system: SR leukemia
[17] = system: SW-620 colon
[18] = system: UO-31 renal
[19] = system: HOP-92 NSCLC

## CCN(CC)C(=S)N/N=C/c1cc(OC)ccc1O
[1]
  TGI: > 100 µM
[2]
  TGI: > 100 µM
[3]
  TGI: > 100 µM
[4]
  TGI: > 100 µM
[5]
  TGI: > 100 µM
[6]
  TGI: > 100 µM
[7]
  TGI: 12.5 µM
[8]
  TGI: 16.6 µM
[9]
  TGI: > 100 µM
[10]
  TGI: > 100 µM
[11]
  TGI: > 100 µM
[12]
  TGI: 40.4 µM
[13]
  TGI: > 100 µM
[14]
  TGI: > 100 µM
[15]
  TGI: > 100 µM
[16]
  TGI: 8.9 µM
[17]
  TGI: > 100 µM
[18]
  TGI: 6.12 µM

## Cc1cnc2c(c1)C(=O)N(c1ccc([N+](=O)[O-])cc1)S2(=O)=O
[1]
  TGI: > 100 µM
[2]
  TGI: > 100 µM
[3]
  TGI: > 100 µM
[4]
  TGI: > 100 µM
[19]
  TGI: > 100 µM
[5]
  TGI: > 100 µM
[7]
  TGI: > 100 µM
[8]
  TGI: > 100 µM
[9]
  TGI: 63.4 µM
[10]
  TGI: > 100 µM
[11]
  TGI: > 100 µM
[12]
  TGI: > 100 µM
[13]
  TGI: > 100 µM
[14]
  TGI: > 100 µM
[15]
  TGI: > 100 µM
[16]
  TGI: 99.2 µM
[17]
  TGI: > 100 µM
[18]
  TGI: > 100 µM

## CCC(c1ccc(OC)cc1)C1NC(=S)NC1=O (stereo unspecified)
[1]
  TGI: > 50 µM
[2]
  TGI: > 50 µM
[3]
  TGI: > 50 µM
[4]
  TGI: > 50 µM
[19]
  TGI: > 50 µM
[5]
  TGI: > 50 µM
[6]
  TGI: > 50 µM
[7]
  TGI: > 50 µM
[8]
  TGI: > 50 µM
[9]
  TGI: > 50 µM
[10]
  TGI: > 50 µM
[11]
  TGI: > 50 µM
[12]
  TGI: > 50 µM
[13]
  TGI: > 50 µM
[14]
  TGI: > 50 µM
[15]
  TGI: > 50 µM
[17]
  TGI: > 50 µM
[18]
  TGI: > 50 µM

## C/C(=C\CNc1ncnc2c1ncn2CCC(=O)OC(C)(C)C)CO
[1]
  TGI: > 100 µM
[2]
  TGI: > 100 µM
[4]
  TGI: > 100 µM
[19]
  TGI: > 100 µM
[5]
  TGI: > 100 µM
[6]
  TGI: > 100 µM
[7]
  TGI: > 100 µM
[8]
  TGI: > 100 µM
[9]
  TGI: > 100 µM
[10]
  TGI: > 100 µM
[11]
  TGI: > 100 µM
[12]
  TGI: > 100 µM
[14]
  TGI: > 100 µM
[15]
  TGI: > 100 µM
[16]
  TGI: > 100 µM
[17]
  TGI: > 100 µM
[18]
  TGI: > 100 µM

## CCCCCCCCCCCCCCCC(=O)Nc1ccn(C2CCC(COP(=O)(O)OCC3OC(n4cc(F)c(=O)[nH]c4=O)CC3OC(C)=O)O2)c(=O)n1 (stereo unspecified)
[1]
  TGI: 28.5 µM
[2]
  TGI: > 100 µM
[3]
  TGI: > 100 µM
[4]
  TGI: 37.7 µM
[19]
  TGI: 66.3 µM
[5]
  TGI: 32.4 µM
[6]
  TGI: > 38.2 µM
[7]
  TGI: 39.8 µM
[8]
  TGI: 28.1 µM
[9]
  TGI: 53.3 µM
[10]
  TGI: 44.2 µM
[11]
  TGI: 27.7 µM
[12]
  TGI: > 100 µM
[13]
  TGI: 47.6 µM
[14]
  TGI: 35.2 µM
[15]
  TGI: > 67.1 µM
[17]
  TGI: > 52.5 µM
[18]
  TGI: 28.9 µM

## CCCCCCCc1cscc1-c1cscc1Br
[1]
  TGI: 35.6 µM
[2]
  TGI: > 100 µM
[3]
  TGI: > 100 µM
[4]
  TGI: > 100 µM
[6]
  TGI: > 100 µM
[7]
  TGI: 36.4 µM
[8]
  TGI: > 100 µM
[9]
  TGI: > 100 µM
[10]
  TGI: > 100 µM
[11]
  TGI: 61.9 µM
[12]
  TGI: > 100 µM
[13]
  TGI: 34.1 µM
[14]
  TGI: > 100 µM
[15]
  TGI: 87 µM
[16]
  TGI: 41.3 µM
[17]
  TGI: > 100 µM
[18]
  TGI: > 100 µM

## Cc1[nH]c2nc3c(ncn3COCCO)c(=O)n2c1C(c1ccccc1)(c1ccccc1)c1ccccc1
[1]
  TGI: 31 µM
[2]
  TGI: 41.8 µM
[3]
  TGI: > 100 µM
[4]
  TGI: 44.3 µM
[19]
  TGI: 31.8 µM
[5]
  TGI: 24.2 µM
[6]
  TGI: 27.3 µM
[7]
  TGI: 27.8 µM
[8]
  TGI: 33.3 µM
[9]
  TGI: 33.6 µM
[10]
  TGI: 24.3 µM
[11]
  TGI: 28.2 µM
[12]
  TGI: > 100 µM
[13]
  TGI: 29.8 µM
[14]
  TGI: 28.6 µM
[15]
  TGI: 26.7 µM
[17]
  TGI: > 56.4 µM
[18]
  TGI: > 76.1 µM

## CC1(C)SCc2nc3ccccc3n21
[1]
  TGI: > 100 µM
[2]
  TGI: > 100 µM
[3]
  TGI: > 100 µM
[4]
  TGI: > 100 µM
[19]
  TGI: > 100 µM
[5]
  TGI: > 100 µM
[6]
  TGI: > 100 µM
[7]
  TGI: > 100 µM
[8]
  TGI: > 100 µM
[9]
  TGI: > 100 µM
[10]
  TGI: > 100 µM
[11]
  TGI: > 100 µM
[12]
  TGI: > 100 µM
[13]
  TGI: > 100 µM
[14]
  TGI: > 100 µM
[15]
  TGI: 3.56 µM
[17]
  TGI: > 100 µM
[18]
  TGI: > 100 µM

## CC(CNC(=O)c1ccccc1)(CNC(=O)c1ccccc1)[N+](=O)[O-]
[1]
  TGI: > 100 µM
[2]
  TGI: > 100 µM
[3]
  TGI: > 100 µM
[19]
  TGI: > 100 µM
[5]
  TGI: > 100 µM
[6]
  TGI: > 100 µM
[8]
  TGI: > 100 µM
[9]
  TGI: > 100 µM
[10]
  TGI: > 100 µM
[11]
  TGI: > 100 µM
[12]
  TGI: > 100 µM
[13]
  TGI: > 100 µM
[14]
  TGI: 73.3 µM
[15]
  TGI: > 100 µM
[16]
  TGI: > 100 µM
[17]
  TGI: > 100 µM
[18]
  TGI: > 100 µM

## Cc1ccc(SCC(CF)OC(C)n2cnc3c(Cl)nc(N)nc32)cc1 (stereo unspecified)
[1]
  TGI: > 100 µM
[3]
  TGI: > 100 µM
[4]
  TGI: > 100 µM
[19]
  TGI: > 100 µM
[5]
  TGI: > 100 µM
[7]
  TGI: > 100 µM
[8]
  TGI: > 100 µM
[9]
  TGI: > 100 µM
[10]
  TGI: > 100 µM
[11]
  TGI: 36.1 µM
[12]
  TGI: > 100 µM
[13]
  TGI: > 100 µM
[14]
  TGI: > 100 µM
[15]
  TGI: > 100 µM
[16]
  TGI: > 100 µM
[17]
  TGI: > 100 µM
[18]
  TGI: > 100 µM

## CC(C)CC(NC=O)C(=O)NC(Cc1ccccc1)NC(=O)CNC(=O)C(C)NC(=O)C(N)Cc1ccc(O)cc1 (stereo unspecified)
[1]
  TGI: > 100 µM
[2]
  TGI: > 100 µM
[3]
  TGI: > 100 µM
[4]
  TGI: > 100 µM
[19]
  TGI: > 100 µM
[5]
  TGI: > 100 µM
[6]
  TGI: > 100 µM
[7]
  TGI: > 100 µM
[8]
  TGI: > 100 µM
[10]
  TGI: > 100 µM
[11]
  TGI: > 100 µM
[12]
  TGI: > 100 µM
[14]
  TGI: > 100 µM
[15]
  TGI: > 100 µM
[16]
  TGI: > 100 µM
[17]
  TGI: > 100 µM
[18]
  TGI: > 100 µM

## O=C1CC(C(OCc2ccccc2)C(OCc2ccccc2)C(OCc2ccccc2)C(COCc2ccccc2)OCc2ccccc2)CC(=O)N1 (stereo unspecified)
[2]
  TGI: > 100 µM
[3]
  TGI: > 100 µM
[4]
  TGI: > 100 µM
[19]
  TGI: > 100 µM
[5]
  TGI: > 100 µM
[6]
  TGI: > 100 µM
[7]
  TGI: > 100 µM
[8]
  TGI: > 100 µM
[9]
  TGI: > 100 µM
[10]
  TGI: > 100 µM
[12]
  TGI: > 100 µM
[14]
  TGI: > 100 µM
[15]
  TGI: > 100 µM
[16]
  TGI: > 100 µM
[17]
  TGI: > 100 µM
[18]
  TGI: > 100 µM

## CC(Cc1cccc2c1Nc1ccccc1S2)N(C)CCO (stereo unspecified)
[1]
  TGI: > 100 µM
[2]
  TGI: > 100 µM
[3]
  TGI: > 100 µM
[4]
  TGI: > 100 µM
[19]
  TGI: > 100 µM
[5]
  TGI: > 100 µM
[6]
  TGI: > 100 µM
[7]
  TGI: > 100 µM
[8]
  TGI: > 100 µM
[9]
  TGI: > 100 µM
[10]
  TGI: > 100 µM
[11]
  TGI: > 100 µM
[12]
  TGI: > 100 µM
[14]
  TGI: > 100 µM
[16]
  TGI: > 100 µM
[17]
  TGI: > 100 µM
[18]
  TGI: > 100 µM
